For the data set the following is noted: Crystal; triple pt. cell.

Structures are written as SMILES. Numbers after ± are expanded uncertainties.

In the case of `[20Ne]` [neon-20], the Triple point temperature is 24.54 ± 8e-05 K. As to `[22Ne]` [neon-22], the Triple point temperature was 24.69 ± 8e-05 K.

(Values after the NIST ThermoML archive (doi:10.1007/s10765-011-0939-5).)
